# Test results taken from patent publication US9113629B2, “4-amino-6-(4-substituted-phenyl)-picolinates and 6-amino-2-(4-substituted-phenyl)-pyrimidine-4-carboxylates and their use as herbicides” (DOW AGROSCIENCES LLC, priority 2013, dated 2015).
# Where two headings read alike, the source gives them in different places.
# What was measured:
# Assay in all cases: Post-emergent Test III, herbicidal activity in wheat and barley
# Type in all cases: in vivo
# [1] = test system: SASKR: Russian thistle (Salsola iberica); conditions: for pest or weed control at 35 g/ha / pest or weed control at 70 g/ha: Salsola tragus, post-emergence, 504 h; for pest or weed control at 35 g/ha: 35 g ai/ha; for pest or weed control at 70 g/ha: 70 g ai/ha; for GR50 SASKR / GR80 SASKR: probit analysis; for GR50 SASKR: dose for 50 percent growth reduction; for GR80 SASKR: dose for 80 percent growth reduction
# Method in brief: (§1)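 GR20, GR50, GR80 and GR90 come from probit analysis of visual injury scores (0 = none, 100 = complete kill) taken 21 d after treatment. Foliar application was by track sprayer delivering 187 L/ha at five rates, from high down to 1/16×, onto greenhouse plants at the 2–3 leaf stage, with solvent-blank controls.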
# [2] = test system: KCHSC: kochia (Kochia scoparia); conditions: for pest or weed control at 35 g/ha / pest or weed control at 70 g/ha: Bassia scoparia, post-emergence, 504 h; for pest or weed control at 35 g/ha: 35 g ai/ha; for pest or weed control at 70 g/ha: 70 g ai/ha; for GR50 KCHSC / GR80 KCHSC: probit analysis; for GR50 KCHSC: dose for 50 percent growth reduction; for GR80 KCHSC: dose for 80 percent growth reduction
# Method in brief: as §1
# [3] = test system: HORSS: barley, including spring and winter (Hordeum vulgare); conditions: for pest or weed control at 35 g/ha / pest or weed control at 70 g/ha: Hordeum vulgare, post-emergence, 504 h; for pest or weed control at 35 g/ha: 35 g ai/ha; for pest or weed control at 70 g/ha: 70 g ai/ha; for GR20 HORSS: probit analysis
# Method in brief: as §1
# [4] = test system: VERPE: bird's-eye speedwell (veronica persica); conditions: for pest or weed control at 35 g/ha / pest or weed control at 70 g/ha: Veronica persica, post-emergence, 504 h; for pest or weed control at 35 g/ha: 35 g ai/ha; for pest or weed control at 70 g/ha: 70 g ai/ha; for GR50 VERPE / GR80 VERPE: probit analysis; for GR50 VERPE: dose for 50 percent growth reduction; for GR80 VERPE: dose for 80 percent growth reduction
# Method in brief: as §1
# [5] = test system: VIOSS: wild pansy (Viola tricolor), field violet (Viola arvensis); conditions: for pest or weed control at 35 g/ha / pest or weed control at 70 g/ha: Viola tricolor, post-emergence, 504 h; for pest or weed control at 35 g/ha: 35 g ai/ha; for pest or weed control at 70 g/ha: 70 g ai/ha; for GR50 VIOSS / GR80 VIOSS: probit analysis; for GR50 VIOSS: dose for 50 percent growth reduction; for GR80 VIOSS: dose for 80 percent growth reduction
# Method in brief: as §1
# [6] = test system: MATSS: scented mayweed (Matricaria chamomilla), pineappleweed (Matricaria matricarioides); conditions: for pest or weed control at 35 g/ha / pest or weed control at 70 g/ha: Matricaria chamomilla, post-emergence, 504 h; for pest or weed control at 35 g/ha: 35 g ai/ha; for pest or weed control at 70 g/ha: 70 g ai/ha; for GR50 MATSS / GR80 MATSS: probit analysis; for GR50 MATSS: dose for 50 percent growth reduction; for GR80 MATSS: dose for 80 percent growth reduction
# Method in brief: as §1
# [7] = test system: TRZSS: wheat, including spring and winter (Triticum aestivum); conditions: for pest or weed control at 35 g/ha / pest or weed control at 70 g/ha: Triticum aestivum, post-emergence, 504 h; for pest or weed control at 35 g/ha: 35 g ai/ha; for pest or weed control at 70 g/ha: 70 g ai/ha; for GR20 TRZSS: probit analysis
# Method in brief: as §1
# [8] = 21 days after application, read-out: Visual Gorowth Reduction (%) 21 days After Application SASKR
# [9] = 21 days after application, read-out: Visual Gorowth Reduction (%) 21 days After Application KCHSC
# [10] = 21 days after application, read-out: Visual Gorowth Reduction (%) 21 days After Application HORSS
# [11] = dose for 20 percent growth reduction (crop), 21 days after application
# [12] = 21 days after application, read-out: Visual Gorowth Reduction (%) 21 days After Application VERPE
# [13] = 21 days after application, read-out: Visual Gorowth Reduction (%) 21 days After Application VIOSS
# [14] = 21 days after application, read-out: Visual Gorowth Reduction (%) 21 days After Application MATSS
# [15] = 21 days after application, read-out: Visual Gorowth Reduction (%) 21 days After Application TRZSS
# [16] = Table 8, post-emergent, 21 d, read-out: Visual Growth Reduction (%) 21 Days After Application SASKR
# [17] = Table 8, post-emergent, 21 d, read-out: Visual Growth Reduction (%) 21 Days After Application KCHSC
# [18] = Table 8, post-emergent, 21 d, read-out: Visual Growth Reduction (%) 21 Days After Application HORSS
# [19] = Table 8, dose for 20 percent growth reduction, 21 d
# [20] = Table 8, post-emergent, 21 d, read-out: Visual Growth Reduction (%) 21 Days After Application VERPE
# [21] = Table 8, post-emergent, 21 d, read-out: Visual Growth Reduction (%) 21 Days After Application VIOSS
# [22] = Table 8, post-emergent, 21 d, read-out: Visual Growth Reduction (%) 21 Days After Application MATSS
# [23] = Table 8, post-emergent, 21 d, read-out: Visual Growth Reduction (%) 21 Days After Application TRZSS
smiles,measurement,setting,value
C#Cc1ccc(-c2nc(C(=O)O)c(Cl)c(N)c2F)c(F)c1 [Compound 108],pest or weed control at 35 g/ha,[1]; [8],0 to 29%
same,pest or weed control at 70 g/ha,[1]; [8],30 to 44%
same,GR50 SASKR,[1]; 21 days after application,136 g ai/ha
same,GR80 SASKR,[1]; 21 days after application,>140 g ai/ha
same,pest or weed control at 35 g/ha,[2]; [9],0 to 29%
same,pest or weed control at 70 g/ha,[2]; [9],0 to 29%
same,GR50 KCHSC,[2]; 21 days after application,>140 g ai/ha
same,GR80 KCHSC,[2]; 21 days after application,>140 g ai/ha
same,pest or weed control at 35 g/ha,[3]; [10],30 to 44%
same,pest or weed control at 70 g/ha,[3]; [10],45 to 59%
same,GR20 HORSS,[3]; [11],16 g ai/ha
same,pest or weed control at 35 g/ha,[4]; [12],60 to 74%
same,pest or weed control at 70 g/ha,[4]; [12],75 to 84%
same,GR50 VERPE,[4]; 21 days after application,22 g ai/ha
same,GR80 VERPE,[4]; 21 days after application,67 g ai/ha
same,pest or weed control at 35 g/ha,[5]; [13],30 to 44%
same,pest or weed control at 70 g/ha,[5]; [13],30 to 44%
same,GR50 VIOSS,[5]; 21 days after application,85 g ai/ha
same,GR80 VIOSS,[5]; 21 days after application,>140 g ai/ha
same,pest or weed control at 35 g/ha,[6]; [14],30 to 44%
same,pest or weed control at 70 g/ha,[6]; [14],60 to 74%
same,GR50 MATSS,[6]; 21 days after application,58 g ai/ha
same,GR80 MATSS,[6]; 21 days after application,>140 g ai/ha
same,pest or weed control at 35 g/ha,[7]; [15],75 to 84%
same,pest or weed control at 70 g/ha,[7]; [15],75 to 84%
same,GR20 TRZSS,[7]; [11],6 g ai/ha
"Nc1cc(-c2ccc(Br)c(F)c2)nc(C(=O)O)c1Cl [Compound 110, 4-Amino-6-(4-bromo-3-fluorophenyl)-3-chloropicolinic acid]",pest or weed control at 35 g/ha,[1]; [16],75 to 84%
same,pest or weed control at 70 g/ha,[1]; [16],85 to 94%
same,GR50 SASKR,"[1]; Table 8, 21 d",1 g ai/ha
same,GR80 SASKR,"[1]; Table 8, 21 d",30 g ai/ha
same,pest or weed control at 35 g/ha,[2]; [17],95 to 100%
same,pest or weed control at 70 g/ha,[2]; [17],95 to 100%
same,GR50 KCHSC,"[2]; Table 8, 21 d",1 g ai/ha
same,GR80 KCHSC,"[2]; Table 8, 21 d",1 g ai/ha
same,pest or weed control at 35 g/ha,[3]; [18],85 to 94%
same,pest or weed control at 70 g/ha,[3]; [18],95 to 100%
same,GR20 HORSS,[3]; [19],1 g ai/ha
same,GR50 VERPE,"[4]; Table 8, 21 d",>140 g ai/ha
same,GR80 VERPE,"[4]; Table 8, 21 d",>140 g ai/ha
same,pest or weed control at 35 g/ha,[4]; [20],0 to 29%
same,pest or weed control at 70 g/ha,[4]; [20],0 to 29%
same,GR50 VIOSS,"[5]; Table 8, 21 d",51 g ai/ha
same,GR80 VIOSS,"[5]; Table 8, 21 d",144 g ai/ha
same,pest or weed control at 35 g/ha,[5]; [21],30 to 44%
same,pest or weed control at 70 g/ha,[5]; [21],60 to 74%
same,pest or weed control at 35 g/ha,[6]; [22],60 to 74%
same,pest or weed control at 70 g/ha,[6]; [22],85 to 94%
same,GR50 MATSS,"[6]; Table 8, 21 d",10 g ai/ha
same,GR80 MATSS,"[6]; Table 8, 21 d",37 g ai/ha
same,GR20 TRZSS,[7]; [19],1 g ai/ha
same,pest or weed control at 35 g/ha,[7]; [23],85 to 94%
same,pest or weed control at 70 g/ha,[7]; [23],85 to 94%
